Structures can show the parent of a compound that is named as a salt.
How the values were obtained:
Assay type in all cases: biochemical
human α-thrombin = biological target: T1, human α-thrombin (Homo sapiens, UniProt P00734); experiment: In vitro inhibition of purified thrombin, Ki determination (p-nitroanilide substrate hydrolysis); settings: Enzyme: Thrombin; substrate Suc-Ala-Ala-Pro-Arg-pNA 20 μM, 37° C., pH 7.5
T1 construct: Purified human a-thrombin was diluted into assay buffer; purchased Enzyme Research Laboratories (South Bend, Indiana)
Text: (§1) All buffer salts were obtained from Sigma Chemical Company (St. Louis, Mo.), and were of the highest purity available. The enzyme substrates, N-benzoyl-Phe-Val-Arg-p-nitroanilide (SigmaB7632),N-benzoyl-Ile-Glu-Gly-Arg-p-nitroanilide (Sigma B2291), N-p-tosyl-Gly-Pro-Lys-p-nitroanilide (Sigma T6140), and N-succinyl-Ala-Ala-Pro-Phe-p-nitroanilide (Sigma S7388) were all obtained from Sigma.
(§2) Human α-thrombin and human factor Xa were obtained from Enzyme Research Laboratories (South Bend, Indiana). Bovine trypsin was obtained from Sigma.
All assays are based on the ability of the test compound to inhibit the enzyme catalyzed hydrolysis of a peptide p-nitroanilide substrate. In a typical Ki determination, substrate is prepared in DMSO, and diluted into an assay buffer consisting of 50 mM HEPES, 200 mM NaCl, pH 7.5. The final concentration for each of the substrates is listed below. In general, substrate concentrations are lower than the experimentally determined value for Km. Test compounds are prepared as a 0.16 mg/mL solution in DMSO. Dilutions are prepared in DMSO yielding 8 final concentrations encompassing a 200-fold concentration range. Enzyme solutions are prepared at the concentrations listed below in assay buffer.
(§3) In a typical Ki determination, into each well of a 96 well plate is pipetted 280 uL of substrate solution, 10 μL of inhibitor solution, and the plate allowed to thermally equilibrate at 37° C. in a Molecular Devices plate reader for >10 minutes. Reactions were initiated by the addition of a 20 μL aliquot of enzyme, and the absorbance increase at 405 nm is recorded for 15 minutes. Data corresponding to less than 10% of the total substrate hydrolysis were used in the calculations. The ratio of the velocity (rate of the change in absorbance as a function of time) for a sample containing no inhibitor is divided by the velocity of a sample containing inhibitor, and is plotted as a finction of inhibitor concentration. The data are fit to a linear regression, and the value of the slope of the line calculated. The inverse of the slope is the experimentally determined Ki value.
Thrombin activity was assessed as the ability to hydrolyze the substrate Suc-Ala-Ala-Pro-Arg-pNA. Substrate solutions were prepared at a concentration of 20 μM (20 uM<<Km=180 μM) in assay buffer. Final DMSO concentration was 0.3%. Purified human a-thrombin was diluted into assay buffer to a concentration of […]. Final reagent concentrations were: [thrombin] ═0.5 nM, [Suc-Ala-Ala-Pro-Arg-pNA]=20 μM.

human factor Xa = biological target: T2, human factor Xa (Homo sapiens, UniProt P00742); experiment: In vitro inhibition of purified factor Xa, Ki determination (p-nitroanilide substrate hydrolysis); settings: Enzyme: Factor Xa; substrate Bz-Ile-Glu-Gly-Arg-pNA 51 μM, 37° C., pH 7.5
T2 construct: purchased Enzyme Research Laboratories (South Bend, Indiana)
Text: as §1, §2
(§4) All assays are based on the ability of the test compound to inhibit the enzyme catalyzed hydrolysis of a peptide p-nitroanilide substrate. […] In general, substrate concentrations are lower than the experimentally determined value for Km. […]
as §3, with “Data corresponding to less than 10% of the total substrate hydrolysis were used in the calculations.” left out, “The data are fit to a linear regression, and the value of the slope of the line calculated. The inverse of the slope is the experimentally determined Ki value.” left out

bovine trypsin = biological target: T3, bovine trypsin (Bos taurus, UniProt P00760); experiment: In vitro inhibition of purified trypsin, Ki determination (p-nitroanilide substrate hydrolysis); settings: Enzyme: Trypsin; substrate Bz-Phe-Val-Arg-pNA 14 μM, 37° C., pH 7.5
T3 construct: Purified bovine trypsin was diluted into assay buffer; purchased Sigma
T3 sequence (P00760 24-246): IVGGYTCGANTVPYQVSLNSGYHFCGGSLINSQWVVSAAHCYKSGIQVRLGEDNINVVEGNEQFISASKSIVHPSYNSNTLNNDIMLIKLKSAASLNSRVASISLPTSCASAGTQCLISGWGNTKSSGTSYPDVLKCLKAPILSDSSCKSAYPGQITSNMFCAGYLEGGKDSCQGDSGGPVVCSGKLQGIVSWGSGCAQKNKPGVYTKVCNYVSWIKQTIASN
Text: as §1, §2, §4
as §3, with “Data corresponding to less than 10% of the total substrate hydrolysis were used in the calculations.” left out, “The data are fit to a linear regression, and the value of the slope of the line calculated. The inverse of the slope is the experimentally determined Ki value.” left out

bovine α-chymotrypsin = biological target: T4, bovine α-chymotrypsin (Bos taurus, UniProt P00766); experiment: In vitro inhibition of purified chymotrypsin, Ki determination (p-nitroanilide substrate hydrolysis); settings: Enzyme: Chymotrypsin; substrate Suc-Ala-Ala-Pro-Phe-pNA 14 μM, 37° C., pH 7.5
T4 construct: Purified bovine x-chymotrypsin was diluted into assay buffer
Text: as §1
All assays are based on the ability of the test compound to inhibit the enzyme catalyzed hydrolysis of a peptide p-nitroanilide substrate. In a typical Ki determination, substrate is prepared in DMSO, and diluted into an assay buffer consisting of 50 mM HEPES, 200 mM NaCl, pH 7.5. […] In general, substrate concentrations are lower than the experimentally determined value for Km. […]
as §3, with “Data corresponding to less than 10% of the total substrate hydrolysis were used in the calculations.” left out, “The data are fit to a linear regression, and the value of the slope of the line calculated. The inverse of the slope is the experimentally determined Ki value.” left out

T2 sequence (P00742 235-488 limits assumed): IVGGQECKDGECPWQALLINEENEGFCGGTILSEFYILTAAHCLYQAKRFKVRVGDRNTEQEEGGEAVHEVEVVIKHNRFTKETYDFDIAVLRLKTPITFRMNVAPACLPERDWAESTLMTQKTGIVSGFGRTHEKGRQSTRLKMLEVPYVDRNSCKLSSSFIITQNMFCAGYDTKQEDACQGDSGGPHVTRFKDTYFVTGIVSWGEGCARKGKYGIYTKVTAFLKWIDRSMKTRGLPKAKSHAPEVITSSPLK
T2 sequence (P00742 41-179 limits assumed): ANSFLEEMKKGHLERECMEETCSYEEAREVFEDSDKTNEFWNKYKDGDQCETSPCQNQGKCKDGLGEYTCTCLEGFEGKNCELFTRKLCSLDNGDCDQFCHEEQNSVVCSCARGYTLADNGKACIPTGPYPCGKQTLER

## CC(=N)N1CCC(COc2cc(C)cc(OS(=O)(=O)c3ccccc3Cl)c2)CC1 [Example 1, 2-Chlorobenzenesulfonic acid 3-[(1-acetimidoylpiperidin-4-yl)methoxy]-5-methylphenyl ester hydrochloride]
Human α-thrombin
  Ki: 1650 nM

## CC(=N)N1CCC(COc2cc(C)cc(OS(=O)(=O)c3cccc(Cl)c3)c2)CC1 [Example 5, 3-Chlorobenzenesulfonic acid 3-[[(1-acetimidoyl)piperidin-4-yl]methoxyl]-5-methylphenyl ester hydrochloride]
Human α-thrombin
  Ki: 4860 nM

## Cc1cc(OCc2cccc(C(=N)N)c2)cc(OS(=O)(=O)c2ccccc2Cl)c1 [Example 6, 2-Chlorobenzenesulfonic acid 3-[(3amidinophenyl)methoxy]-5-methylphenyl ester hydrochloride]
Human factor Xa
  Ki: 2720 nM

## Cc1cc(OCc2cccc(C(=N)NO)c2)cc(OS(=O)(=O)c2ccccc2Cl)c1 [Example 7, 2-Chlorobenzenesutronic acid 3-[[3-(N-hydroxy)amidinophenyl]methoxy-5-methylphenyl ester hydrochloride]
Bovine trypsin
  Ki: 5230 nM

## CC(=N)N1CCC(COc2cc(C)cc(OS(=O)(=O)c3cccc(Cl)c3Cl)c2)CC1 [Example 8, 2,3-Dichlorobenzenesulfonic acid 3-[[(1-acetimidoyl)piperidin-4-yl]methoxy]-5-methylphenyl ester hydrochloride]
Human α-thrombin
  Ki: 1720 nM

## Cc1cc(OCCCC(=N)N)cc(OS(=O)(=O)c2ccccc2Cl)c1 [Example 14, 2-Chlorobenzenesulfonic acid 3-[3-amidinopropoxy]-5-methylphenyl ester hydrochloride]
Human α-thrombin
  Ki: 570 nM

## Cc1cc(OCCCCCC(=N)N)cc(OS(=O)(=O)c2ccccc2Cl)c1 [Example 18, 2-Chlorobenzenesulfonic acid 3-[5-amidinopentyloxy]-5-methylphlenyl ester acetic acid salt]
Bovine α-chymotrypsin
  Ki: 6290 nM
